The record followed here is patent US7399869B2, “Fibroblast activation protein inhibitor compounds and methods” (Genentech, Inc., priority 2005, dated 2008).

Structures are written as SMILES.

Common to all, as to type: biochemical
The target of one experiment is T1, DPP-7 (Homo sapiens, UniProt Q9UHL4).
T1 construct: These constructs encoded amino acids 26-492 of DPP-7; FLAG (N); made in house; host or cells: 293 cells; template plasmid from Origene
As to the kind of experiment: Inhibition of DPP-7 by Ac-Gly-boroPro 5. The conditions noted are these: substrate Ala-Pro-AFC, 23° C., progress curves. The procedure:
(§1) To establish whether Ac-Gly-BoroPro 5 inhibits these prolyl peptidases, each protease was cloned, expressed and assayed to determine Km and Ki values and monitor their activity.
(§2) Briefly, proteases were added to a reaction mixture containing inhibitor and substrate (Ac-Ala-AMC for APH, Z-Gly-Pro-AMC for POP, and Ala-Pro-AFC for all others) in assay buffer at 23° C. Protease activity was followed continuously as described above to monitor time-dependent inhibition. Data were plotted as V0/Vi−1 versus [I], where V0 is the rate if substrate hydrolysis in the absence of inhibitor, Vi is the steady state rate of substrate hydrolysis in the presence of inhibitor and [I] is the concentration of Ac-Gly-BoroPro.
(§3) KI values for inhibition of proteases by 5 were determined using the method of progress curves. Briefly, proteases (10-100 nM) were added to a reaction mixture containing inhibitor 5 (0-10 μM) and substrate AP-AFC in assay buffer at 23° C. […] Ki, the true equilibrium inhibition constant was determined according to the following relationship: Ki=Kobs/(1+[S]/Km), where [S] is the concentration of substrate used in the assay and Km is the Michaelis constant for substrate cleavage. […]

The target in another experiment is T2, DPP-8 (Homo sapiens, UniProt Q6V1X1).
T2 construct: 2-883 of DPP-8; FLAG (N); made in house; host or cells: 293 cells; template plasmid from Origene
T2 sequence (Q6V1X1 18-898 limits assumed): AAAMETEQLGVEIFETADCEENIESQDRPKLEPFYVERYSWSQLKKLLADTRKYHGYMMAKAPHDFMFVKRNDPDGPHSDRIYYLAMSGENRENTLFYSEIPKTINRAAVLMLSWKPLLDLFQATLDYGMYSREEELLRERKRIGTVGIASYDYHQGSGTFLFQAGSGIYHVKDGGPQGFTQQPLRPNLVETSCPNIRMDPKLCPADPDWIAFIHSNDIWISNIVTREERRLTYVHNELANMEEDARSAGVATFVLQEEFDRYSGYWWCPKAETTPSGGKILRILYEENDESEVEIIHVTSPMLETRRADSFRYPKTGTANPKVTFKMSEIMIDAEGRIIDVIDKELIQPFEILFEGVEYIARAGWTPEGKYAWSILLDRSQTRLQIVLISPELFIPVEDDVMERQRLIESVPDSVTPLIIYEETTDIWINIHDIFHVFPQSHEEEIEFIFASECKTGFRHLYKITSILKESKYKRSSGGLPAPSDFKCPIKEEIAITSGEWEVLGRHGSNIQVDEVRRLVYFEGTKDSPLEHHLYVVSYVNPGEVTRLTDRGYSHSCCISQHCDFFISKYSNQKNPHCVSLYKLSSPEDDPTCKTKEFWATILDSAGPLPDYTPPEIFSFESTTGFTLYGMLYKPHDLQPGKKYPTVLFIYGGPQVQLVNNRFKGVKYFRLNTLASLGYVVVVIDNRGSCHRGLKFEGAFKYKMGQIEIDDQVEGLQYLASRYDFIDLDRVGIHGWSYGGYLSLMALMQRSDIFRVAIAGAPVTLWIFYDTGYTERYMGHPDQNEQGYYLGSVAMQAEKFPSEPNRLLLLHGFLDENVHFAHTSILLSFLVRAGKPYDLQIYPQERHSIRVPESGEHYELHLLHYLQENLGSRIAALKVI
Briefly: Inhibition of DPP-8 by Ac-Gly-boroPro 5. As to the method: as §1, §2, §3

The next experiment deals with T3, DPP-9 (Homo sapiens, UniProt Q86TI2).
T3 construct: 2-864 of DPP-9; FLAG (N); made in house; host or cells: 293 cells; template plasmid from Origene
T3 sequence (Q86TI2 2-863 limits assumed): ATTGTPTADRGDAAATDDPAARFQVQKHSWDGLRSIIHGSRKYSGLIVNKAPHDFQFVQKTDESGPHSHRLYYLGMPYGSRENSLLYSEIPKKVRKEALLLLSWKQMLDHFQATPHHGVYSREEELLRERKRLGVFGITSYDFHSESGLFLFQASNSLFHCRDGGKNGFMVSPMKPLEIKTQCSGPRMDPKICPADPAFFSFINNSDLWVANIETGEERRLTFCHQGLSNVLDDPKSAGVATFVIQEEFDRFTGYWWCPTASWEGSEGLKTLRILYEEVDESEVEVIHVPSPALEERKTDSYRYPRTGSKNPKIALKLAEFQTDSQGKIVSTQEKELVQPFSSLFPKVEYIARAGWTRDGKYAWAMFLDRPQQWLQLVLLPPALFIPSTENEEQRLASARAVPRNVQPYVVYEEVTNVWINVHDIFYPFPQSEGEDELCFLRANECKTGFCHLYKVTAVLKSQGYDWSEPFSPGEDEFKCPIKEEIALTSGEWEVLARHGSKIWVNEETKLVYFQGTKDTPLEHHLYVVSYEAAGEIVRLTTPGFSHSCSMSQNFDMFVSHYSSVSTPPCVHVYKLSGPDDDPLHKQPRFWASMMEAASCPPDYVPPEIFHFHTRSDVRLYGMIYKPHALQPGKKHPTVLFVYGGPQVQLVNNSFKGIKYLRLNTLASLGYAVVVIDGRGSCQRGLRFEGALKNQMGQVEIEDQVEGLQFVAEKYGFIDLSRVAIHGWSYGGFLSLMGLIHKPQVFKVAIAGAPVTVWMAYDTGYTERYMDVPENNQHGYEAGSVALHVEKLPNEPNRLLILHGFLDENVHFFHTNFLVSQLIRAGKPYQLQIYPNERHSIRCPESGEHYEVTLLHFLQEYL
Briefly: Inhibition of DPP-9 by Ac-Gly-boroPro 5. The procedure: as §1, §2, §3

The target in a further experiment is T4, APH (Homo sapiens, UniProt P13798).
T4 construct: 2-732 of APH; FLAG (N); made in house; host or cells: 293 cells; template plasmid from Origene
T4 sequence (P13798 2-732): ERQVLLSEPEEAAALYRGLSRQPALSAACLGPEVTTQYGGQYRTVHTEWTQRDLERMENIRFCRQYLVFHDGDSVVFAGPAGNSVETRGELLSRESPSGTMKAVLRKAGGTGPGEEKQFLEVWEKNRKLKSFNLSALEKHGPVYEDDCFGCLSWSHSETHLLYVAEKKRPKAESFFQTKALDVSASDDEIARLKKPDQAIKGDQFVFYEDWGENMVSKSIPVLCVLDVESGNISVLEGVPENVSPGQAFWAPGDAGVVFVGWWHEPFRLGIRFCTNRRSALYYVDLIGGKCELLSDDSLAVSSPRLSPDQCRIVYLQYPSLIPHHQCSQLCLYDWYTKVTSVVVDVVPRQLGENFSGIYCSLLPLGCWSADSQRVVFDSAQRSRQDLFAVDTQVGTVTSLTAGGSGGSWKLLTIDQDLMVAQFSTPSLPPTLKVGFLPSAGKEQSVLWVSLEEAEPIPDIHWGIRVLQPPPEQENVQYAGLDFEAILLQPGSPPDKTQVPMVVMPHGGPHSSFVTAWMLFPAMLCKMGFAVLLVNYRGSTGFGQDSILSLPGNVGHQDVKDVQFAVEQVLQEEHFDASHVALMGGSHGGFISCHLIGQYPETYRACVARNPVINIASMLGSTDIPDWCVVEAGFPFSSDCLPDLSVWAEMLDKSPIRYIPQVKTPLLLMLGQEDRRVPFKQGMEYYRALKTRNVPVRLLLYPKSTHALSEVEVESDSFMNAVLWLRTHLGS
As to the kind of experiment: Inhibition of APH by Ac-Gly-boroPro 5. The note with it: substrate Ac-Ala-AMC, 23° C., progress curves. As to the method:
as §1, §2, §3

For experiment [1], the target named is T5, full-length (transmembrane) murine FAP (Mus musculus, UniProt P97321).
T5 sequence (P97321 1-761): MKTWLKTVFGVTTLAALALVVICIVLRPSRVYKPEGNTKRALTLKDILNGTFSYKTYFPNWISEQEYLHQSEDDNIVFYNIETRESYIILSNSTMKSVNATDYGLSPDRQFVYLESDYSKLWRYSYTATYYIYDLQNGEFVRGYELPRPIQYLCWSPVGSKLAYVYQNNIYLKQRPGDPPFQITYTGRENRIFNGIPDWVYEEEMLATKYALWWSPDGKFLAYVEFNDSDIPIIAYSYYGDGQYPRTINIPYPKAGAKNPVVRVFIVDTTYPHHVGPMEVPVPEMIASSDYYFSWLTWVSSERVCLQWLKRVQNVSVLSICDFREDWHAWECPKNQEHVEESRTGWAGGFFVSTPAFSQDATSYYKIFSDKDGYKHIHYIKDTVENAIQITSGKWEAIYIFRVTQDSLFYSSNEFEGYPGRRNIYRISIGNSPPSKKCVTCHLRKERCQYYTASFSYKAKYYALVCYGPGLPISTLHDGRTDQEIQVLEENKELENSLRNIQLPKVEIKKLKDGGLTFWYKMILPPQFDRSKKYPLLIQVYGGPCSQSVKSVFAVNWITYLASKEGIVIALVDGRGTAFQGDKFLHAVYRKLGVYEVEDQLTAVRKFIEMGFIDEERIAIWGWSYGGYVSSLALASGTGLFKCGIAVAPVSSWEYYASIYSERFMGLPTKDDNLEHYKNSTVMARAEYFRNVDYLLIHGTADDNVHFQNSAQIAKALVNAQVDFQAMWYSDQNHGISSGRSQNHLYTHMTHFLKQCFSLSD
Briefly: Inhibition of murine FAP in cell lysate.

The mark [2] stands for this setting: substrate Ala-Pro-AFC, 23° C., progress curves.

Broadly, the Ki is the equilibrium dissociation constant of an inhibitor or competing ligand from its target. Low readings indicate tighter binding, high ones weaker binding. For the compound `CC(=O)NCC(=O)N1CCCC1B(O)O` (stereo not shown) [N-Ac-Gly-boroPro 5, N-acetyl-gly-boroproline], the inhibition constant Ki turned out to be 125 µM on DPP-7, 19.1 µM on DPP-8 (setting [2]), 8.8 µM on DPP-9 (setting [2]) and 0.575 µM at APH. Moreover, the “reactivity with DPP-8” value at DPP-8 is recorded as “poor reactivity”. On DPP-9, the “reactivity with DPP-9” value is on record as “poor reactivity”. Further, the “inhibits full-length (transmembrane) murine FAP at” value in experiment [1] came out at 117 nM.
